Assay [1] relates to hematopoietic recovery after cyclophosphamide. The experiment in a line: Hematopoietic recovery after cyclophosphamide, acyl chain length (Example 38). The format is in vivo, Balb/C mice. Conditions: day 7; guanosine 5, acyl derivatives 2.5 μmoles/mouse/day i.p. The procedure: Cyclophosphamide (CP) (275 mg/kg, i.p.) was administered to 70 Balb/C female mice weighing approximately 20 grams each. Twenty-four hours later and each day thereafter for a total of 6 days, mice were given a 0.4 ml i.p injection of either physiological saline (controls), Tween 80 (0.2%), guanosine (5 μmoles/mouse/day in 0.2% Tween 80), or 2.5 μmoles per mouse per day of one of the following acylated derivatives of guanosine in 0.2% Tween 80: triacetylguanosine, octanoylguanosine, lauroylguanosine, or palmitoylguanosine. On day 7 following CP administration all 10 animals from each of the 7 groups were bled, and then sacrificed by cervical dislocation. Spleens were removed and weighed, and complete blood counts performed.

The test system is the same in assay [2]. The experiment in a line: Dose-response, hematopoietic recovery after cyclophosphamide (Example 45). The format is in vivo, Balb/C mice. The procedure: Cyclophosphamide (CP) (275 mg/kg, i.p.) was administered to 45 Balb/C female mice weighing approximately 20 grams each. Twenty-four hours later and each day thereafter for a total of 6 days, mice were given a 0.4 ml i.p. injection of either physiological saline (controls), Tween 80 (0.5%), or one of three different doses of octanoylguanosine ([…]). On day 7 following CP administration all 9 animals from each of the […] were bled and then sacrificed by cervical dislocation. Spleens were removed and weighed, and complete blood cell counts performed.

Assay [3] has the same test system. Description: Surfactants, hematopoietic recovery after cyclophosphamide (Example 58). The format is in vivo, Balb/C mice. Particulars: day 7. The procedure: Twenty-four hours later and each day thereafter for a total of 6 days, mice were divided into seven groups and given a 0.4 ml i.p. injection of either physiological saline (controls), Tween 80 at each of three concentrations (0.02%, 0.2% and 1%) or octanoylguanosine (50 mg/kg/dose) in three different concentrations of Tween 80 (0.02%, 0.2% and 1%). On day 7 following CP administration all 9 animals from each of the […] were bled and then sacrificed by cervical dislocation. Spleens were removed and weighed, and complete blood cell counts performed.

The test system is the same in assay [4]. Description: Histological examination of spleens and blood counts after cyclophosphamide (Example 46). The format is in vivo, Balb/C mice. Conditions: day 7. The procedure: Cyclophosphamide (CP) (275 mg/kg, i.p.) was administered to 30 Balb/C female mice weighing approximately 20 grams each. Twenty-four hours later and each day thereafter for a total of 6 days, mice were given a 0.4 ml i.p. injection of either physiological saline (controls), Tween 80 (0.5%), or octanoylguanosine (5.0 μmoles/mouse/day in 0.5% Tween 80). On day 7 following CP administration all 10 animals from each of the 3 groups were bled and then sacrificed by cervical dislocation. Spleens were removed, weighed, and fixed in 10% formalin for later histological examination. Complete blood cell counts were performed on the collected blood.

Assay [5] has the same test system. Description: Hematopoietic recovery after cyclophosphamide (Example 59). The format is in vivo, Balb/C mice. Particulars: days 5 and 7; 25 mg/kg/day i.p. The procedure:
Cyclophosphamide (CP) (275 mg/kg, i.p.) was administered to 28 Balb/C female mice weighing approximately 20 grams each. Twenty-four hours later and each day for 4 days thereafter, mice were given a 0.4 ml i.p. injection of either physiological saline (controls) or palmitoyl-8-aminoguanosine (25 mg/kg/day in 0.2% Tween 80). On days 5 and 7 following CP administration 7 animals from each of the 2 groups were bled and then were sacrificed by cervical dislocation. Spleens were removed and weighed, and complete blood cell counts performed.

Assay [6] shares this test system. The experiment in a line: Dose-response, hematopoietic recovery after cyclophosphamide (Example 54). The format is in vivo, Balb/C mice. The procedure:
(§1) Cyclophosphamide (CP) (275 mg/kg, i.p.) was administered to 112 Balb/C female mice weighing approximately 20 grams each. Twenty-four hours later and each day thereafter mice were given a 0.4 ml i.p. injection of either physiological saline (controls), or palmitoyldeoxyguanosine at one of six different doses: 0.04, 0.08, 0.2, 0.4, 0.6 or 0.8 μmoles/mouse. On days 5 and 7 following CP administration 8 animals from each of the 7 groups were bled and then sacrificed by cervical dislocation. Spleens were removed and weighed, and complete blood cell counts performed.

In assay [7] the test system is hematopoietic recovery from fluorouracil. Description: Pretreatment, hematopoietic recovery from fluorouracil (Example 57). The format is in vivo, Balb/C mice. The procedure: Twenty-eight female Balb/C mice weighing approximately 20 grams each received a 0.4 ml i.p. injection of either physiological saline (controls), or palmitoyldeoxyguanosine (1 μmole/mouse) daily for three days. On the fourth day 5-flourouracil (5-FU) (150 mg/kg, i.p.) was administered to all 28 of the animals. On days 5, 8 and 11 following 5-FU administration 4 (day 5) or 5 (days 8 and 11) animals from both groups were bled and then sacrificed by cervical dislocation. Spleens were removed and weighed, and complete blood cell counts performed.

Assay [8] deals with hematopoietic recovery after cyclophosphamide. Description: Comparative dose-response, hematopoietic recovery after cyclophosphamide (Example 53). The format is in vivo, Balb/C mice. The procedure: as §1, with “to 96” for “to 112”, “(controls), palmitoylguanosine at one of four different doses: 0.2, 0.4, 1.0 or 2.0 μmoles/mouse),” for “(controls),”, “at a dose” for “at one”, “of 1.0” for “of six different doses: 0.04, 0.08, 0.2, 0.4, 0.6 or 0.8”, “the 6” for “the 7”

The subject of assay [9] is Interleukin-3 dependent bone marrow cells. Conditions: 10 micrograms per milliliter.
Protocol: Bone marrow cells were obtained by flushing the femurs of three male B6D2F1 mice. The cells were plated at 5.0×10^5 /ml in MEM plus 10% fetal calf serum and 25 Units/ml of recombinant IL-3 for 24-48 hours. Non-adherent cells were then separated from adherent cells and maintained for an additional twelve days. IL-3 was washed from cells, and cells were plated in MEM plus 10% fetal calf serum in the presence or absence of IL-3 and with or without the addition of palmitoyldeoxyguanosine (10 micrograms per milliliter) or deoxyguanosine (10 micrograms per milliliter). Cells were counted using the trypan blue exclusion method, and the percent of dead cells (trypan blue positive) was determined at 24, 40, 60 and 84 hours following the wash.
The test system of assay [10] is hematopoietic recovery after cyclophosphamide. Description: Dose-response, hematopoietic recovery after cyclophosphamide (Example 52). The format is in vivo, Balb/C mice. Conditions: days 5 and 7; 0.2-2.0 μmoles/mouse, except 0.2 on day 5. The procedure:
Cyclophosphamide (CP) (275 mg/kg, i.p.) was administered to 85 Balb/C female mice weighing approximately 20 grams each. Twenty-four hours later and each day thereafter mice were given a 0.4 ml i.p. injection of either physiological saline (controls), or palmitoyldeoxyguanosine at one of four different doses: 0.2, 0.4, 1.0 or 2.0 μmoles/mouse). On days 5 and 7 following CP administration 9 and 8 animals, respectively, in each of the 5 groups were bled and then sacrificed by cervical dislocation. Spleens were removed and weighed, and complete blood cell counts performed.

Assay [11] shares this test system. Description: Hematopoietic recovery after cyclophosphamide (Example 51). The format is in vivo, Balb/C mice. Particulars: day 5; 2 μmoles/mouse. The procedure:
Cyclophosphamide (CP) (275 mg/kg, i.p.) was administered to 88 Balb/C female mice weighing approximately 20 grams each. Twenty-four hours later and each day thereafter mice were given a 0.4 ml i.p. injection of either Tween-80 (0.2%) (controls), 3'-O-palmitoyldeoxyguanosine (2 μmoles/mouse), butyryldeoxyguanosine (2 μmoles/mouse), palmitoyl-N-isobutyryldeoxyguanosine (2 μmoles/mouse), lauryldeoxyguanosine (2 μmoles/mouse), octanoyldeoxyguanosine (2 μmoles/mouse), and palmitoyldeoxyguanosine (2 μmoles/mouse). On days 5 and 7 following CP administration 6 or 7 animals in each of the 7 groups were bled and then sacrificed by cervical dislocation. Spleens were removed and weighed, and complete blood cell counts performed.

The test system of assay [12] is hematopoiesis in normal mice. The experiment in a line: Hematopoiesis in normal mice (Example 56). The format is in vivo, Balb/C mice. Conditions: day 5, 2.6 μmoles/mouse, 4 days. The procedure:
Normal Balb/C female mice weighing approximately 20 grams each were given a daily 0.4 ml i.p. injection of either physiological saline (controls), palmitoylguanosine (2.6 μmoles/mouse), palmitoyldeoxyguanosine (2.6 μmoles/mouse), monopalmitoylguanosine 2',3'-acyclic dialcohol (2.6 μmoles/mouse), and palmitoyl-8-bromoguanosine (2.6 μmoles/mouse) for 4 days. On the fifth day all 3 animals in each of the 5 groups were bled and then sacrificed by cervical dislocation. Spleens were removed and weighed, and complete blood cell counts performed. Femoral bone marrow from each mouse was collected and a differential cell count performed on marrow smears.

The test system of assay [13] is hematopoietic recovery after cyclophosphamide. The experiment in a line: Recovery of blood cell counts in rats after cyclophosphamide (Example 55). The format is in vivo, F344 rats. The procedure:
Cyclophosphamide (CP) (40 mg/kg, i.p.) was administered to 16 F344 male rats weighing approximately 200 grams each. Twenty-four hours later and each day thereafter rats were given a 0.5 ml i.p. injection of either physiological saline (controls), or palmitoyldeoxyguanosine at a dose of […]. On days 5, 7 and 10 following CP administration all 8 animals from both groups were bled and complete blood cell counts performed. On day 10 all of the rats were sacrificed and their spleens removed and weighed.

Setting [14] is: day 5, palmitoylguanosine 2.0, palmitoyldeoxyguanosine 1.0 μmoles/mouse.
Where [15] appears, read: day 7, palmitoylguanosine 1.0 and 2.0, palmitoyldeoxyguanosine 1.0 μmoles/mouse.

Turning to `CCCCCCCC(=O)OC[C@H]1O[C@@H](n2cnc3c(=O)[nH]c(N)nc32)[C@H](O)[C@@H]1O`, the spleen weight entry in [1] is on record as “significantly larger spleens”; in assay [2] (day 7, 0.5, 2.5 or 5 μmoles/mouse/day, vs controls and Tween 80), “significantly larger spleens”; in [4] (Tween 80 0.5%, octanoylguanosine 5.0 μmoles/mouse/day), “significantly greater”. In addition, in [2] (day 7, highest dose (10 μmoles)), the spleen size result is given as “largest spleens”. Moreover, the “total number of leukocytes” value in assay [2] (day 7, vs control) is “significantly increased above control values in a dose-dependent manner”. Moreover, the “total number of neutrophils” value in [2] (day 7, vs control) is recorded as “significantly increased above control values in a dose-dependent manner”. In addition, the “accelerating regeneration of hematopoiesis” value in assay [2] (middle dose 2.5 μmoles) was “nearly as effective as the highest dose”. Also, the neutrophil counts entry in assay [3] (50 mg/kg in 0.02% and 0.2% Tween 80, vs saline) is on record as “significantly different from controls”; in assay [3] (50 mg/kg in 0.2% vs in 0.02% Tween 80), “significantly higher”. For the same molecule, in assay [4] (vs control or Tween 80), the Neutrophils result is recorded as “significantly greater numbers”. In addition, in assay [4] (vs control or Tween 80), the “peripheral white blood cells (WBC)” value is on record as “significantly greater numbers”. In addition, in assay [4] (vs saline and Tween 80), the “histological examination of spleens” value is “much greater lymphopoiesis (increased white pulp) and myelopoiesis (increased red pulp)”.
As for `CCCCCCCCCCCCCCCC(=O)OC[C@H]1O[C@@H](n2c(N)nc3c(=O)[nH]c(N)nc32)[C@H](O)[C@@H]1O` [palmitoyl-8-aminoguanosine], in assay [5], the Neutrophils entry is “significantly elevated” and the spleen weight result is “significantly elevated”.
Regarding `CCCCCCCCCCCCCCCC(=O)OC[C@H]1O[C@@H](n2cnc3c(=O)[nH]c(N)nc32)C[C@@H]1O` [palmitoyldeoxyguanosine], the spleen weight entry in [6] (day 5, 0.2 μmoles/mouse or greater) is on record as “significantly elevated”; in [6] (day 7, all doses except 0.04 μmoles/mouse), “significantly elevated”; in assay [7] (day 8), “significantly higher”; in [8] (setting [14]), “significantly elevated”; in [8] (setting [15]), “significantly elevated”; in [10] it was “significantly elevated”. The spleen weight entry is given as “significantly elevated” in assay [11]; “significantly elevated” in [12]; “significantly elevated” in assay [13] (day 10, i.p.). For the same molecule, the “white blood cell counts” value in assay [6] (day 5, 0.4 μmoles/mouse or greater) was “significantly elevated”; in assay [6] (day 7, all doses), “statistically significant differences were seen at all doses”; in assay [8] (setting [14]) it was “significantly elevated”; in assay [8] (setting [15]), “significantly elevated”; in assay [10] it was “significantly elevated”; in [11], “significantly elevated”. In [13] (days 5, 7 and 10, i.p.), the “white blood cell counts” value was “significantly elevated”. The total neutrophil counts entry in assay [6] (days 5 and 7, all 6 doses) was “significantly elevated”; in [7] (day 8) it was “significantly higher”; in [7] (day 11) it was “significantly higher”; in assay [8] (setting [14]) it was “significantly elevated”; in [8] (setting [15]), “significantly elevated”; in assay [10], “significantly elevated”. Besides, the total neutrophil counts entry in assay [11] is “significantly elevated”; in assay [13] (days 5, 7 and 10, i.p.), “significantly elevated”. Moreover, the platelet counts entry in assay [7] (day 5, 1 μmole/mouse, 3 days before 5-FU) is on record as “significantly elevated”; in [7] (day 8) it was “significantly higher”; in assay [7] (day 11), “significantly higher”. Further, in assay [7] (day 11), the lymphocyte counts result was “significantly higher”. Further, in assay [7] (day 11), the spleen weights entry is recorded as “significantly higher”. Moreover, the “total white blood cell counts” value in assay [7] (day 11) was “significantly higher”. The “relative potency in elevating spleen weight and cell counts” value in [8] (vs palmitoylguanosine) is reported as “more potent in elevating these parameters than the same or even a 2-fold greater dose of palmitoylguanosine”. Moreover, the “prevention of apoptotic cell death due to IL-3 deprivation” value in assay [9] is “significantly reduced the percentage of dead cells”. For the same molecule, the number of myelocytes entry in [12] (femoral bone marrow) is reported as “significantly greater”. For the same molecule, in assay [13] (day 10, i.p.), the Lymphocytes entry is “significantly elevated”. The Platelets result in assay [13] (day 10, i.p.) is on record as “significantly elevated”.
